Measured values from PubChem BioAssay AID284 (DTP/NCI, 2004).
Where “and” joins values, the source holds several entries; their conditions need not be identical. Equal entries are not always repeated. Toxic doses and inconclusive results are not listed.

Tested on: BDF1 mice, L1210/MTX-resistant leukemia ip, survival T/C
Assay: NCI In Vivo Anticancer Drug Screen. Data for tumor model L1210 Leukemia resistant to Methotrexate; NSC 740 (intraperitoneal) in B6D2F1 (BDF1) mice
Conditions: endpoint: mean survival time, higher = longer survival
Method: The antitumor activity of compounds was measured in mice bearing transplantable tumors. Survival or tumor size were measured and the results are expressed as the measurement made in the treated group (T) divided by the measurement made in the vehicle treated control group (C). The tumor model used in this assay is L1210 Leukemia resistant to Methotrexate; NSC 740 (intraperitoneal) in B6D2F1 (BDF1) mice

[1] = dose: 10.0 mg/kg/injection, schedule: Q01DX Z (ip), vehicle: saline
[2] = dose: 25.0 mg/kg/injection, schedule: Q01DX010 (ip), vehicle: saline
[3] = dose: 6.25 mg/kg/injection, schedule: Q01DX Z (ip), vehicle: carboxymethylcellulose (CMC)
[4] = dose: 10.0 mg/kg/injection, schedule: Q01DX010 (ip), vehicle: saline
[5] = dose: 12.5 mg/kg/injection, schedule: Q01DX Z (ip), vehicle: carboxymethylcellulose (CMC)
[6] = dose: 20.0 mg/kg/injection, schedule: Q01DX010 (ip), vehicle: saline
[7] = dose: 25.0 mg/kg/injection, schedule: Q01DX Z (ip), vehicle: carboxymethylcellulose (CMC)
[8] = dose: 40.0 mg/kg/injection, schedule: Q01DX010 (ip), vehicle: saline

Compound: N=[N+]=CC(=O)OCC(N)C(=O)O (stereo unspecified)
- T/C (dose: 1.25 mg/kg/injection, schedule: Q01DX Z (ip), vehicle: saline): 116 % of control and 121 % of control
- T/C (dose: 2.5 mg/kg/injection, schedule: Q01DX Z (ip), vehicle: saline): 112 % of control
- T/C [1]: 117 % of control and 104 % of control
- T/C (dose: 40.0 mg/kg/injection, schedule: Q01DX Z (ip), vehicle: saline): 101 % of control
- T/C (dose: 80.0 mg/kg/injection, schedule: Q01DX Z (ip), vehicle: saline): 93 % of control

Compound: O=NN(CCCl)C(=O)NCCCl
- T/C (dose: 12.5 mg/kg/injection, schedule: Q01DX010 (ip), vehicle: saline): 113 % of control
- T/C [2]: 87 % of control and 91 % of control

Compound: Cn1c(N)nc2nc[nH]c2c1=S
- T/C [3]: 108 % of control
- T/C [4]: 98 % of control
- T/C [5]: 90 % of control
- T/C [6]: 95 % of control
- T/C [7]: 104 % of control
- T/C [8]: 97 % of control
- T/C (dose: 50.0 mg/kg/injection, schedule: Q01DX Z (ip), vehicle: carboxymethylcellulose (CMC)): 119 % of control
- T/C (dose: 80.0 mg/kg/injection, schedule: Q01DX010 (ip), vehicle: saline): 115 % of control

Compound: CCn1cnc2c(=S)nc[nH]c21
- T/C (dose: 12.0 mg/kg/injection, schedule: Q01DX Z (ip), vehicle: carboxymethylcellulose (CMC)): 95 % of control
- T/C (dose: 15.6 mg/kg/injection, schedule: Q01DX010 (ip), vehicle: saline): 102 % of control
- T/C (dose: 18.0 mg/kg/injection, schedule: Q01DX Z (ip), vehicle: carboxymethylcellulose (CMC)): 98 % of control
- T/C [7]: 121 % of control
- T/C (dose: 31.3 mg/kg/injection, schedule: Q01DX010 (ip), vehicle: saline): 90 % of control
- T/C (dose: 37.0 mg/kg/injection, schedule: Q01DX Z (ip), vehicle: carboxymethylcellulose (CMC)): 89 % of control
- T/C (dose: 100.0 mg/kg/injection, schedule: Q01DX Z (ip), vehicle: carboxymethylcellulose (CMC)): 90 % of control
- T/C (dose: 125.0 mg/kg/injection, schedule: Q01DX010 (ip), vehicle: saline): 90 % of control

Compound: Nc1nc(=S)c2ncn(C3OC(CO)C(O)C3O)c2[nH]1 (stereo unspecified)
- T/C (dose: 0.22 mg/kg/injection, schedule: Q01DX Z (ip), vehicle: carboxymethylcellulose (CMC)): 88 % of control
- T/C (dose: 0.45 mg/kg/injection, schedule: Q01DX Z (ip), vehicle: carboxymethylcellulose (CMC)): 88 % of control
- T/C (dose: 1.8 mg/kg/injection, schedule: Q01DX Z (ip), vehicle: carboxymethylcellulose (CMC)): 102 % of control

Compound: O=C1C(NC(=O)C2CCCCC2)=C(N2CC2)C(=O)C(NC(=O)C2CCCCC2)=C1N1CC1
- T/C (dose: 11.0 mg/kg/injection, schedule: Q01DX010 (ip), vehicle: saline): 89 % of control
- T/C (dose: 22.0 mg/kg/injection, schedule: Q01DX010 (ip), vehicle: saline): 101 % of control
- T/C [2]: 112 % of control
- T/C (dose: 44.0 mg/kg/injection, schedule: Q01DX010 (ip), vehicle: saline): 98 % of control
- T/C (dose: 50.0 mg/kg/injection, schedule: Q01DX010 (ip), vehicle: saline): 108 % of control
- T/C (dose: 88.0 mg/kg/injection, schedule: Q01DX010 (ip), vehicle: saline): 95 % of control
- T/C (dose: 100.0 mg/kg/injection, schedule: Q01DX010 (ip), vehicle: saline): 109 % of control
- T/C (dose: 200.0 mg/kg/injection, schedule: Q01DX010 (ip), vehicle: saline): 109 % of control

Compound: O=C(O)CCCc1ccc(N(CCCl)CCCl)cc1
- T/C (dose: 1.0 mg/kg/injection, schedule: Q01DX Z (ip), vehicle: carboxymethylcellulose (CMC)): 105 % of control
- T/C (dose: 2.0 mg/kg/injection, schedule: Q01DX Z (ip), vehicle: carboxymethylcellulose (CMC)): 97 % of control
- T/C (dose: 4.0 mg/kg/injection, schedule: Q01DX Z (ip), vehicle: carboxymethylcellulose (CMC)): 96 % of control
- T/C (dose: 5.0 mg/kg/injection, schedule: Q01DX Z (ip), vehicle: carboxymethylcellulose (CMC)): 103 % of control
- T/C [3]: 107 % of control
- T/C [5]: 95 % of control
- T/C [7]: 90 % of control

Compound: O=C(Nc1ccc(C2=NCCN2)cc1)c1ccc(C(=O)Nc2ccc(C3=NCCN3)cc2)cc1
- T/C (dose: 4.0 mg/kg/injection, schedule: Q01DX010 (ip), vehicle: other): 194 % of control and 204 % of control
- T/C (dose: 8.0 mg/kg/injection, schedule: Q01DX010 (ip), vehicle: other): 244 % of control and 279 % of control
- T/C (dose: 10.0 mg/kg/injection, schedule: Q01DX Z (ip), vehicle: methylcellulose (MC)): 124 % of control and 105 % of control
- T/C (dose: 16.0 mg/kg/injection, schedule: Q01DX010 (ip), vehicle: other): 218 % of control and 219 % of control
- T/C (dose: 20.0 mg/kg/injection, schedule: Q01DX Z (ip), vehicle: methylcellulose (MC)): 120 % of control and 106 % of control
- T/C (dose: 32.0 mg/kg/injection, schedule: Q01DX010 (ip), vehicle: other): 231 % of control and 239 % of control
- T/C (dose: 40.0 mg/kg/injection, schedule: Q01DX Z (ip), vehicle: methylcellulose (MC)): 117 % of control
- T/C (dose: 64.0 mg/kg/injection, schedule: Q01DX010 (ip), vehicle: other): 222 % of control and 242 % of control

Compound: Nc1ccc(C(=O)NO)cc1
- T/C (dose: 112.0 mg/kg/injection, schedule: Q01DX015 (ip), vehicle: carboxymethylcellulose (CMC)): 109 % of control
- T/C (dose: 225.0 mg/kg/injection, schedule: Q01DX015 (ip), vehicle: carboxymethylcellulose (CMC)): 117 % of control
- T/C (dose: 450.0 mg/kg/injection, schedule: Q01DX015 (ip), vehicle: carboxymethylcellulose (CMC)): 100 % of control

Compound: CS(=O)(=O)OCC(O)C(O)COS(C)(=O)=O (stereo unspecified)
- T/C (dose: 18.8 mg/kg/injection, schedule: Q01DX Z (ip), vehicle: saline): 88 % of control
- T/C (dose: 37.5 mg/kg/injection, schedule: Q01DX Z (ip), vehicle: saline): 90 % of control
- T/C (dose: 75.0 mg/kg/injection, schedule: Q01DX Z (ip), vehicle: saline): 101 % of control

Compound: N=C(N)c1ccc(Nc2ccc(C(=N)N)cc2)cc1
- T/C (dose: 1.5 mg/kg/injection, schedule: Q01DX010 (ip), vehicle: saline): 101 % of control
- T/C (dose: 3.0 mg/kg/injection, schedule: Q01DX010 (ip), vehicle: saline): 97 % of control
- T/C (dose: 6.0 mg/kg/injection, schedule: Q01DX010 (ip), vehicle: saline): 102 % of control
- T/C (dose: 7.5 mg/kg/injection, schedule: Q01DX Z (ip), vehicle: water): 98 % of control
- T/C (dose: 12.0 mg/kg/injection, schedule: Q01DX010 (ip), vehicle: saline): 91 % of control
- T/C (dose: 12.5 mg/kg/injection, schedule: Q01DX Z (ip), vehicle: water): 86 % of control

Compound: CCCCn1cnc2c(=S)nc[nH]c21
- T/C (dose: 16.0 mg/kg/injection, schedule: Q01DX010 (ip), vehicle: saline): 114 % of control
- T/C (dose: 32.0 mg/kg/injection, schedule: Q01DX010 (ip), vehicle: saline): 97 % of control
- T/C (dose: 64.0 mg/kg/injection, schedule: Q01DX010 (ip), vehicle: saline): 105 % of control

Compound: O=CCC(O)C(O)C(O)CO (stereo unspecified)
- T/C (dose: 3.75 mg/kg/injection, schedule: Q01DX Z (ip), vehicle: saline): 113 % of control
- T/C (dose: 5.0 mg/kg/injection, schedule: Q01DX Z (ip), vehicle: saline): 118 % of control
- T/C (dose: 7.5 mg/kg/injection, schedule: Q01DX Z (ip), vehicle: saline): 114 % of control and 103 % of control
- T/C [1]: 118 % of control
- T/C (dose: 15.0 mg/kg/injection, schedule: Q01DX Z (ip), vehicle: saline): 114 % of control
- T/C (dose: 250.0 mg/kg/injection, schedule: Q01DX Z (ip), vehicle: saline): 108 % of control
- T/C (dose: 500.0 mg/kg/injection, schedule: Q01DX Z (ip), vehicle: saline): 104 % of control
- T/C (dose: 750.0 mg/kg/injection, schedule: Q01DX Z (ip), vehicle: saline): 99 % of control
- T/C (dose: 1000.0 mg/kg/injection, schedule: Q01DX Z (ip), vehicle: saline): 91 % of control

Compound: CC1CCOS(=O)O1 (stereo unspecified)
- T/C [4]: 100 % of control
- T/C [6]: 100 % of control
- T/C [8]: 90 % of control
